Laboratory results: patent publication US7816074B2, “α4 β2 δGABA-A receptors as a strategy for PMS and alcoholism” (priority 2003, dated 2010)

How the values were obtained:
female Long Evans rats = test: Acoustic startle response (ASR); format: in vivo, rat; details: for decrease of peak ASR: diestrous and sham controls
Protocol: Animals were tested in a stabilimeter device (SR-Lab Startle Response System, San Diego Instruments, Inc., San Diego, Calif.) that permits vertical movement of a Plexiglas platform contained within a lit, well-ventilated sound-attenuating chamber (26). The amplitude of movement is detected by a piezoelectric device with a voltage output proportional to platform displacement. The analog output of the accelerometer is then amplified and digitized before computer analysis. Five minutes after i.p. administration of 10% ethanol (0.05-1.6 g/kg) or saline vehicle (1.5 ml volume) or 25 minutes after 4,5,6,7-tetrahydroisoxazolo[5,4-c]pyridin-3-ol injection (3 mg/kg, i.p.), animals were placed in the chamber for a 5 minutes acclimation period. […] Four acoustic stimuli (116 dB, 40 ms duration) were then presented at random intervals once every 10-15 seconds via a white-noise generator through speakers positioned on either side of the cage. […] For each acoustic stimulus, the amplitude and integrated response (amplitude and duration) were determined and normalized to the weight of the animal. Values for the integrated response after administration of each dose of ethanol or 4,5,6,7-tetrahydroisoxazolo[5,4-c]pyridin-3-ol were averaged and expressed as a fraction of the saline control average for the indicated treatment (progesterone withdrawal versus control) group in order to minimize variability between groups. […] It is also routinely used to assess behavioral excitability after withdrawal from BDZs and ethanol (73).
Animals were tested in a stabilimeter device (SR-Lab Startle Response System, San Diego Instruments, Inc.) that permitted vertical movement of a Plexiglas cage contained within a lit, well-ventilated, sound-attenuating chamber. The amplitude of movement was detected by a piezoelectric device with a voltage output proportional to cage displacement. The analog output of the accelerometer was amplified and digitized before computer analysis (15). Five minutes following intraperitoneal administration of alcohol (0.2 or 0.4 g/kg) or saline vehicle (1.5 ml volume), animals were placed in the chamber for 5 a minute acclimation period. Five acoustic stimuli (116 dB, 40 msec duration) were then presented once every 10-15 seconds via a white-noise generator through speakers positioned on either side of the cage. For each acoustic stimulus, the integrated response (amplitude and duration) was averaged across a 100 msec post-stimulus time period and the response latency determined. Both values were normalized to the weight of the animal. Values for the integrated response for the first noise stimulus following administration of each dose of alcohol were averaged and expressed as a fraction of the saline control average for the indicated treatment (P Wd versus control) group. […] It is routinely used to assess behavioral excitability following withdrawal from benzodiazepiness (48) and alcohol (73), and is known to be modified by GABA modulators, such as diazepam (11), and by local infusion of excitatory compounds into dorsal hippocampus (85).

[1] = test system: GABAA receptors of acutely isolated CA1 hippocampal pyramidal cells; details: ethanol 1-3 mM, but not higher (>10 mM); after progesterone withdrawal (ref. 67); cited from earlier work
[2] = test system: GABAA receptors of acutely isolated CA1 hippocampal pyramidal cells; test: Whole cell patch clamp, ethanol or THIP effect on GABA-gated current; format: cell-based, rat; details: for potentiation of GABA-gated currents: progesterone-withdrawal model; for potentiation of GABA-gated responses: after progesterone withdrawal
Protocol: Pyramidal neurons were acutely dissociated from CA1 hippocampus and GABA-gated Cl^− currents analyzed using whole cell patch clamp procedures as previously described (67). Briefly, tissue was digested at 32° C. for 50-60 minutes under 100% O2 in PIPES-buffered saline containing (in mM): NaCl 120, KCl 5, CaCl2 1, MgCl2 1, D-glucose 25, PIPES 20 and trypsin (type XI, sigma) 0.8 mg/ml, pH 7.0. After 1 hour of enzyme-free incubation at room temperature, tissue was dissociated by trituration in 1 ml of 20 mM HEPES-buffered DMEM which was replaced by recording medium after transfer to the recording chamber. GABA-gated currents were recorded at room temperature (20-25° C.) at a holding potential of −50 mV in a bath containing (in mM): NaCl 120, CsCl 5, CaCl2 2, MgCl2 1, TEA Cl 15, 4-aminopyridine 5, HEPES 10 and glucose 25, pH 7.4, 320 mOsm/kg H2O. The pipette solution contained (in mM): N-methyl-D-glucamine chloride 120, Cs4BAPTA 5 and Mg-ATP 5. The ATP regeneration system Tris phosphocreatine (20 mM) and creatine kinase were added to minimize GABA rundown. All drugs were obtained from Sigma Chemical Co, (St. Louis, Mo.), except for BAPTA (Calbiochem, San, Diego, Calif.).
Peak currents were calculated for all drug concentrations as relative to the current gated by 10 μM GABA alone using the equation: ([peak current: GABA+ETOH]−[peak current: GABA alone])/[peak current: GABA alone]. Currents were recorded using an Axopatch 1D amplifier (Axon Instruments) filtered at 2 kHz (four-pole Bessel filter) and detected at 500 Hz (pClamp 5.1).
Following progesterone withdrawal or control conditions, pyramidal cells were acutely isolated from CA1 hippocampus as described (65,64). GABA-gated Cl^− currents were recorded using whole cell patch clamp techniques at a holding potential of −50 mV.

α4β2δ GABAA receptors = molecular target: T1, α4β2δ GABAA receptors (UniProt O14764+P63138+Q9D6F4); test: Two-electrode voltage-clamp of recombinant GABAA receptors in oocytes; format: cell-based; details: 1 mM ethanol
T1 construct: expressed in transfected cells
T1 sequence (Q9D6F4 36-552): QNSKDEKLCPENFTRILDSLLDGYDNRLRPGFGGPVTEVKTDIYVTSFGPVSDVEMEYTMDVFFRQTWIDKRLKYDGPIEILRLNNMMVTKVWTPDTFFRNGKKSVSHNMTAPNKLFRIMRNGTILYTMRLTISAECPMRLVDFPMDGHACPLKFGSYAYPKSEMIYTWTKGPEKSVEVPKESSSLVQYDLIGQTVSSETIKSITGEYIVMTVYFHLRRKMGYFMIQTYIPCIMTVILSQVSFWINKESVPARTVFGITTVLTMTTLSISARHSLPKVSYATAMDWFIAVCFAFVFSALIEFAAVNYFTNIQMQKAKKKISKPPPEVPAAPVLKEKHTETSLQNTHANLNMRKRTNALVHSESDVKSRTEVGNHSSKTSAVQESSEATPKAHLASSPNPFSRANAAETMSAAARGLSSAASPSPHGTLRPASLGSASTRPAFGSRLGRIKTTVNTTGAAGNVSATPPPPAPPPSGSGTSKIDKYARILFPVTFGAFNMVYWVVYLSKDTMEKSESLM
T1 sequence (P63138 25-474 limits assumed): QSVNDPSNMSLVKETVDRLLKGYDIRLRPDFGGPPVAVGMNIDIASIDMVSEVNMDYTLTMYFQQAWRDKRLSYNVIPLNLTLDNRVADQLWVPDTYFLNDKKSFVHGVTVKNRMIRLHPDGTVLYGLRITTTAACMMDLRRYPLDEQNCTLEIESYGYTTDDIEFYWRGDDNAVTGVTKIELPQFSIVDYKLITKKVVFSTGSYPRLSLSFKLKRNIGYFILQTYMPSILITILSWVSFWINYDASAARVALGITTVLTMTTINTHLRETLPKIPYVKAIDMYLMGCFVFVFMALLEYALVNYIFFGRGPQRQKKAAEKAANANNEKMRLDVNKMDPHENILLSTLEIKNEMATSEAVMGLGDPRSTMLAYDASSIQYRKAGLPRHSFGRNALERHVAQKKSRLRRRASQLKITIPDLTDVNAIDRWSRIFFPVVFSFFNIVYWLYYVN
T1 sequence (O14764 17-452 limits assumed): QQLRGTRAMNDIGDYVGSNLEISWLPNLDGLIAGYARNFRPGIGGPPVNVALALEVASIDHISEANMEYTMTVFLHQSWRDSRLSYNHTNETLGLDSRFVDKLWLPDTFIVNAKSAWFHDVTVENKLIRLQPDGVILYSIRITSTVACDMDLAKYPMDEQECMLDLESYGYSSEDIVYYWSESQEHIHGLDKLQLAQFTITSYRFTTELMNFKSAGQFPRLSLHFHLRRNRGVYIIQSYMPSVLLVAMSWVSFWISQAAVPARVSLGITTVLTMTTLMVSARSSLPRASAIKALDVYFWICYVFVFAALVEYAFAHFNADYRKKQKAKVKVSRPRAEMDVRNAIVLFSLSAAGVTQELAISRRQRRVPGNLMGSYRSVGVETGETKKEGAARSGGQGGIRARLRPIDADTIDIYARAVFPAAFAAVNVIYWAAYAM
Protocol: Oocytes were injected with receptor subunit cRNAs (2 to 20 ng) in the following ratios: α1:β1:γ2S, α1:β2:γ2S and α1:β1:ε1, 1:1:1; α2:β1:γ2S, α5:β1:γ2S, α4:β1:γ2S, and α4:β2:γ2S, 10:1:1; α4:β1:δ, α4:β2:δ, α4:β3δ, 10:1:10; α1:β2:δ, 1:1:10 or 1:0.5:3; α1:β1:δ, 1:1:10 or 1:0.5:3; α2:β1:δ and α2:β2:δ, 1:0.5:3; α1:β1, α1:β2, α2:β1, α2:β2, β2:γ2S and α4δ, 1:1, α4:β1, α4:β2, α4:β3, 10:1, β2δ, 1:10.
Voltage-clamp recording was carried out 1 to 3 days after injection of cRNAs. Electrodes were filled with 3 M KCl and had resistances of 0.4-4 MΩ. Oocytes were positioned in a small Perspex chamber and continuously superfused with a saline solution (100 mM NaCl, 2 mM KCl, 1.8 mM CaCl2, 10 mM HEPES, pH 7.5). Agonists and modulators were both applied in the same saline solution. Oocytes were voltage-clamped at −70 mV and macroscopic currents were recorded with a two-electrode voltage-clamp using a Warner Instruments OC-725 amplifier as described previously (79). Currents were recorded on a chart recorder or by using Axograph on a Macintosh computer.

**Q.** With `CCO` [ethanol] as the compound, how does the “effect on acoustic startle response” value (female Long Evans rats; alcohol 0.2-0.4 g/kg in vivo, after progesterone withdrawal (Example III)) read?
**A.** decreased the acoustic startle response

**Q.** What about the “effect on ASR” value (female Long Evans rats; ethanol 0.05 g/kg i.p., P withdrawal and diestrous control animals) of the same compound?
**A.** equally ineffective

**Q.** And the “attenuation of average peak and integrated startle responses” value (female Long Evans rats; ethanol 0.2-0.4 g/kg i.p., after P withdrawal)?
**A.** about 70%

**Q.** And the “attenuation of startle responses” value (female Long Evans rats; ethanol 0.2-0.4 g/kg i.p., diestrous and sham control animals)?
**A.** not observed

**Q.** And the “decrease of peak ASR” value (female Long Evans rats; ethanol 0.2 g/kg)?
**A.** ineffective

**Q.** And the “effect on ASR” value (female Long Evans rats; ethanol 0.8-1.2 g/kg i.p., P withdrawn animals)?
**A.** ineffective

**Q.** What about the “effect on ASR” value (female Long Evans rats; ethanol 0.8-1.2 g/kg i.p., both control groups) of the same compound?
**A.** significantly decreased

**Q.** What about the “decrease of peak ASR” value (female Long Evans rats; ethanol 0.8 g/kg) of the same compound?
**A.** effective

**Q.** What about the “effect on ASR” value (female Long Evans rats; ethanol 1.6 g/kg i.p., P withdrawal and diestrous control animals) of the same compound?
**A.** decreased the ASR

**Q.** What about the “effect on GABA-gated current of isolated hippocampal neurons” value [1] of the same compound?
**A.** potentiated

**Q.** What about the “GABA-modulatory effects of alcohol” value ([2]; 1 mM alcohol, progesterone withdrawal with α4 expression suppressed) of the same compound?
**A.** prevented

**Q.** And the “potentiation of GABA-gated currents” value ([2]; 1 mM alcohol)?
**A.** 81±21%

**Q.** What about the “potentiation of GABA-gated responses” value ([2]; 3 mM ethanol with 10 μM GABA) of the same compound?
**A.** 75±10%

**Q.** What about the “potentiation of GABA-gated currents” value ([2]; 10 mM and greater alcohol) of the same compound?
**A.** not as effective

**Q.** And the “potentiation of GABA-gated responses” value ([2]; 20 mM ethanol)?
**A.** ineffective

**Q.** What about the “effect on GABA responses” value ([2]; 3 or 20 mM ethanol, cells from control animals) of the same compound?
**A.** neither concentration produced an effect

**Q.** And the “increase of GABA-gated currents at α4β2δ receptors” value (α4β2δ GABAA receptors)?
**A.** 45±11%
